Activity calls are given as the source filed them. No cut-off for these calls is given here.
Assays:
RAW264.7 [1] = assay: Anti-inflammatory activity in mouse RAW264.7 cells assessed as inhibition of LPS-induced NO production at 1 uM preincubated for 1 hr followed by LPS addition and measured after 24 hrs by Griess reagent-based assay relative to control; format: functional
RAW264.7 [2] = assay: Anti-inflammatory activity in mouse RAW264.7 cells assessed as inhibition of LPS-induced IL-1beta production at 1 uM preincubated for 1 hr followed by LPS addition and measured after 24 hrs by EIA relative to control; format: functional
RAW264.7 [3] = assay: Anti-inflammatory activity in mouse RAW264.7 cells assessed as inhibition of LPS-induced PGE2 production at 1 uM preincubated for 1 hr followed by LPS addition and measured after 24 hrs by EIA relative to control; format: functional
RAW264.7 [4] = assay: Anti-inflammatory activity in mouse RAW264.7 cells assessed as inhibition of LPS-induced TNFalpha production at 1 uM preincubated for 1 hr followed by LPS addition and measured after 24 hrs by EIA relative to control; format: functional
[5] = Cytotoxicity against LPS-induced mouse RAW264.7 cells assessed as cell viability at 1 uM incubated for 24 hrs by MTT assay relative to control; format: cell-based; details: LPS-induced RAW264.7 cells, read-out: Activity
RAW264.7 [6] = assay: Anti-inflammatory activity in mouse RAW264.7 cells assessed as inhibition of LPS-induced IL-6 production at 1 uM preincubated for 1 hr followed by LPS addition and measured after 24 hrs by EIA relative to control; format: functional
RAW264.7 [7] = assay: Anti-inflammatory activity in mouse RAW264.7 cells assessed as inhibition of LPS-induced PGE2 production at 0.2 uM preincubated for 1 hr followed by LPS addition and measured after 24 hrs by EIA; format: functional, cell-based
RAW264.7 [8] = assay: Anti-inflammatory activity in mouse RAW264.7 cells assessed as inhibition of LPS-induced PGE2 production preincubated for 1 hr followed by LPS addition and measured after 24 hrs by EIA; format: functional, cell-based
RAW264.7 [9] = assay: Anti-inflammatory activity in mouse RAW264.7 cells assessed as inhibition of LPS-induced NO production at 0.5 uM preincubated for 1 hr followed by LPS addition and measured after 24 hrs by Griess reagent-based assay; format: functional, cell-based
RAW264.7 [10] = assay: Effect on IL-6 production in mouse RAW264.7 cells assessed as increase in IL-6 production up to 5 uM measured after 1 hr by EIA; format: ADME, cell-based; details: raw264.7, 1 h
RAW264.7 [11] = assay: Anti-inflammatory activity in mouse RAW264.7 cells assessed as inhibition of LPS-induced IL-6 production at 0.5 uM preincubated for 1 hr followed by LPS addition and measured after 24 hrs by EIA; format: functional, cell-based
RAW264.7 [12] = assay: Anti-inflammatory activity in mouse RAW264.7 cells assessed as inhibition of LPS-induced TNFalpha production preincubated for 1 hr followed by LPS addition and measured after 24 hrs by EIA; format: functional, cell-based
RAW264.7 [13] = assay: Anti-inflammatory activity in mouse RAW264.7 cells assessed as inhibition of LPS-induced IL-6 production preincubated for 1 hr followed by LPS addition and measured after 24 hrs by EIA; format: functional, cell-based
RAW264.7 [14] = assay: Effect on TNF-alpha production in mouse RAW264.7 cells assessed as increase in TNFalpha production at up to 5 uM measured after 1 hr by EIA; format: ADME, cell-based; details: raw264.7, 1 h
RAW264.7 [15] = assay: Anti-inflammatory activity in mouse RAW264.7 cells assessed as inhibition of LPS-induced IL-6 production at 1 to 5 uM preincubated for 1 hr followed by LPS addition and measured after 24 hrs by EIA; format: functional, cell-based
RAW264.7 [16] = assay: Anti-inflammatory activity in mouse RAW264.7 cells assessed as inhibition of LPS-induced TNFalpha production at 0.5 uM preincubated for 1 hr followed by LPS addition and measured after 24 hrs by EIA; format: functional, cell-based
RAW264.7 [17] = assay: Effect on NO production in mouse RAW264.7 cells assessed as inhibition of NO production at 2 to 5 uM incubated for 24 hrs by Griess reagent-based assay; format: cell-based; details: raw264.7, 24 h
RAW264.7 [18] = assay: Anti-inflammatory activity in mouse RAW264.7 cells assessed as inhibition of LPS-induced NO production preincubated for 1 hr followed by LPS addition and measured after 24 hrs by Griess reagent-based assay; format: functional, cell-based

IC50 (RAW264.7 [8]) [nM]	IC50 (RAW264.7 [18]) [nM]	SMILES	inhibition at 1 µM (RAW264.7 [1]) [%]	inhibition at 1 µM (RAW264.7 [2]) [%]	inhibition at 1 µM (RAW264.7 [3]) [%]	inhibition at 1 µM (RAW264.7 [4]) [%]	viability at 24 h, 1 µM [5] [%]	inhibition at 1 µM (RAW264.7 [6]) [%]	inhibition (RAW264.7 [7])	inhibition (RAW264.7 [8])	inhibition (RAW264.7 [9])	Activity (RAW264.7 [10])	inhibition (RAW264.7 [11])	inhibition (RAW264.7 [12])	inhibition (RAW264.7 [13])	Activity (RAW264.7 [14])	inhibition (RAW264.7 [15])	inhibition (RAW264.7 [16])	Activity (RAW264.7 [17])	inhibition (RAW264.7 [18])
–	–	COc1cccc(NC(=O)c2cccc(-c3cc(=O)c4c(OC)c(OC)c(OC)cc4o3)c2)c1	12.3	82.6	-11.4	34.1	84.2	7.66	–	–	–	–	–	–	–	–	–	–	–	–
–	–	COc1cc2oc(-c3cccc(C(=O)Nc4ccc5c(c4)OCO5)c3)cc(=O)c2c(O)c1OC	-5.15	27.1	-2.8	-7.5	97.1	12.8	–	–	–	–	–	–	–	–	–	–	–	–
–	–	COc1ccc(C(=O)Nc2cccc(-c3cc(=O)c4c(OC)c(OC)c(OC)cc4o3)c2)cc1	11.1	12.2	6.21	20.4	102	-12.5	–	–	–	–	–	–	–	–	–	–	–	–
–	–	COc1cc2oc(-c3ccc(NC(=O)c4ccc5c(c4)OCO5)cc3)cc(=O)c2c(OC)c1OC	–	–	–	–	63	–	–	–	–	–	–	–	–	–	–	–	–	–
–	–	COc1ccc(C(=O)Nc2ccc(-c3cc(=O)c4c(OC)c(OC)c(OC)cc4o3)cc2)cc1	3.26	-2.33	36.8	27.4	92.4	-40.9	–	–	–	–	–	–	–	–	–	–	–	–
–	–	COc1cccc(C(=O)Nc2cccc(-c3cc(=O)c4c(OC)c(OC)c(OC)cc4o3)c2)c1	19.9	75.6	2.62	-88	117	-52.5	–	–	–	–	–	–	–	–	–	–	–	–
–	–	COc1cc2oc(-c3cccc(C(=O)Nc4ccc5c(c4)OCO5)c3)cc(=O)c2c(OC)c1OC	17	-54.4	16.1	9.94	92	25.7	–	–	–	–	–	–	–	–	–	–	–	–
1990	–	COc1ccccc1NC(=O)c1cccc(-c2cc(=O)c3c(OC)c(OC)c(OC)cc3o2)c1	20.6	71.2	42.5	22.9	101	-32.2	Active	Dose-dependent effect	–	–	–	–	–	–	–	–	–	–
–	–	COc1ccc(C(=O)Nc2cccc(-c3cc(=O)c4c(O)c(OC)c(OC)cc4o3)c2)cc1	6.52	34.6	52.7	48.2	105	-7.54	–	–	–	–	–	–	–	–	–	–	–	–
–	–	COc1cc2oc(-c3ccc(NC(=O)c4ccccc4)cc3)cc(=O)c2c(OC)c1OC	9.71	-30.2	7	-8.22	109	-23.2	–	–	–	–	–	–	–	–	–	–	–	–
3400	2750	COc1cc(NC(=O)c2cccc(-c3cc(=O)c4c(OC)c(OC)c(OC)cc4o3)c2)cc(OC)c1OC	48.3	143	11.2	28.6	113	31.9	inactive	Dose-dependent effect	inactive	Non-Toxic	Active	Dose-dependent effect	Dose-dependent effect	Non-Toxic	Active	Active	Non-Toxic	Dose-dependent effect
–	–	COc1cc2oc(-c3cccc(NC(=O)c4ccc5c(c4)OCO5)c3)cc(=O)c2c(OC)c1OC	7.13	38.2	17.1	-40.6	116	-9.56	–	–	–	–	–	–	–	–	–	–	–	–
